Measured values published in US5766620A, “Buccal delivery of glucagon-like insulinotropic peptides” (TheraTech, Inc., priority 1995, dated 1998).
Like-named read-outs stand apart in the source and are kept apart here.

Legend:
blood glucose = test: Blood glucose after buccal bilayer tablet, double-blind placebo-controlled crossover; conditions: 400 μg buccal bilayer tablet, fasting healthy volunteers
Source text: This example describes a double-blind, placebo-controlled, crossover comparison with random assignment to treatment sequence. […] Inclusion criteria for the volunteers were normal glucose tolerance, weight within 22<BMI<26, informed consent to participate in the study, and age between 20 and 60 years. […]
Subject numbers were allotted to the subjects in the order in which they were enrolled in the study. The number allotted to each subject determined the treatment sequence received. […]
(§1) Subjects were instructed to fast the night before a treatment. […] Standard safety variables were determined under fasting conditions before each experiment. Blood glucose was monitored frequently and glucose infusion was available in case of hypoglycemia (<2.5 mmol/L). […]
(§2) Blood samples were taken for pharmacokinetic analysis 10 minutes before application of the drug, and at 5, 10, 15, 20, 25, 30, 40, 50, 60, 75, 90, 120, 150, 180, 210, 240, and 270 minutes and 6 and 8 hours after application of the drug. […] The peptide content of bilayer tablet samples was also analyzed by HPLC. […]

clinical = test: clinical
Source text: This example describes a double-blind, placebo-controlled, crossover comparison with random assignment to treatment sequence. […] Inclusion criteria for the volunteers were normal glucose tolerance, weight within 22<BMI<26, informed consent to participate in the study, and age between 20 and 60 years. Exclusion criteria were impaired glucose tolerance (2-hour glucose tolerance test; OGTT), gastrointestinal symptoms, ongoing medication or illness, acute infection, abnormal laboratory variables (hemoglobin, hematocrit, leucocytes, creatinine, bilirubin, calcium, potassium, sodium, alkaline phosphatase, gamma-GT, SGOT, SGPT, cholesterol, and triglycerides), and blood pressure greater than 185 mmHg systolic and/or 90 mmHg diastolic.
Subject numbers were allotted to the subjects in the order in which they were enrolled in the study. The number allotted to each subject determined the treatment sequence received. Subjects receiving treatment sequence 1 were treated with drug followed by placebo, and subjects receiving treatment sequence 2 were treated with placebo followed by drug.
as §1, with “treatment. At the clinic, the subjects were given either a drug-containing bilayer tablet or placebo.” for “treatment.”
as §2
The data summarized in FIG. 7 were analyzed by AUC to provide an estimate of relative bioavailability by buccal administration as compared to subcutaneous administration.

[1] = intravenous infusion, fasting individuals, published data; cited from earlier work
[2] = Published subcutaneous administration of GLP-1 to fasting subjects (Nauck, FIG. 8); type: in vivo, human
Source text: A study by M. A. Nauck of subcutaneous administration of GLP-1 to fasting subjects illustrates changes in the pharmocokinetics with dose (FIG. 8). This could be due to changes in bioavailability with dose, changes in clearance with dose, or a combination of both effects.

[3] = after administration, 400 μg buccal bilayer tablet

| Molecule | hypoglycemia (blood glucose) | time of onset of sharp rise of plasma GLP-1(7-36)amide level (clinical; [3]) | time until which elevated GLP-1(7-36)amide levels remain in the blood (clinical; [3]) | F rel (clinical; human, plasma, 400 ug) | clearance [1] | bioavailability by subcutaneous administration relative to intravenous administration ([2]; subcutaneous) | clearance ([2]; subcutaneous administration, regression analysis of all results) |
| --- | --- | --- | --- | --- | --- | --- | --- |
| CC[C@H](C)[C@H](NC(=O)[C@H](Cc1ccccc1)NC(=O)[C@H](CCC(=O)O)NC(=O)[C@H](CCCCN)NC(=O)[C@H](C)NC(=O)[C@H](C)NC(=O)[C@H](CCC(N)=O)NC(=O)CNC(=O)[C@H](CCC(=O)O)NC(=O)[C@H](CC(C)C)NC(=O)[C@H](Cc1ccc(O)cc1)NC(=O)[C@H](CO)NC(=O)[C@H](CO)NC(=O)[C@@H](NC(=O)[C@H](CC(=O)O)NC(=O)[C@H](CO)NC(=O)[C@@H](NC(=O)[C@H](Cc1ccccc1)NC(=O)[C@@H](NC(=O)CNC(=O)[C@H](CCC(=O)O)NC(=O)[C@H](C)NC(=O)[C@@H](N)Cc1c[nH]cn1)[C@@H](C)O)[C@@H](C)O)C(C)C)C(=O)N[C@@H](C)C(=O)N[C@@H](Cc1c[nH]c2ccccc12)C(=O)N[C@@H](CC(C)C)C(=O)N[C@H](C(=O)N[C@@H](CCCCN)C(=O)NCC(=O)N[C@@H](CCCNC(=N)N)C(N)=O)C(C)C [GLP-1(7-36)amide] | does not result in hypoglycemia | ≤ 5 min | about 150 minutes | 27% |  |  |  |
| GLP-1: GLP-1 given intravenously (7-37 and 7-36 amide) or subcutaneously to fasting subjects in published studies used for comparison |  |  |  |  | ~15 mL/min/kg | 38% | about 40 ml/min/kg |
